Values quoted from earlier work as cited in patent publication US20080318335A1, “Transgenic Plant for Detecting Environmental Chemicals” (priority 2005, published 2008).

Tested on: GUS gene
Conditions: tobacco including AhR vector; 5 nM 20-methylcholanthrene

Substance: 20-methylcholanthrene
- GUS gene expression: expressed
